# Test results taken from patent US20180289666A1, “FLAVONOLIGNANS FOR TREATMENT OF AUTOIMMUNE INFLAMMATORY DISEASES” (Macau University of Science and Technology, priority 2017, published 2018).
# Tests used:
# [1] = test system: key enzymes involved in lipid metabolism in liver; assay: Real-time PCR and Western blot of lipid metabolism enzymes in liver of AIA rats; assay type: in vivo, Sprague-Dawley (SD) rats; settings: AIA rats liver
# Experimental: Total RNA was isolated from the frozen liver of the AIA model using TRIzol® Reagent (Life technology, USA). mRNA was purified by binding to poly(dT) magnetic beads using Dynabeads® mRNA DIRECT™ Kit (Life technology, Norway) and reverse transcribed using SuperScript® III reverse transcriptase (Invitrogen, California, USA) as described by the manufacturer. Quantitative real-time PCR was performed using SYBR Green (Sigma-Aldrich, Louis, USA) on the ViiA™ 7 Real-Time PCR System (Applied Biosystems, FosterCity, USA). Quantitative RT-PCR analysis was performed using SYBR Green reagents and ViiA™ 7 Real-Time PCR System. Gene expression levels were calculated from cycle threshold (Ct) values and normalized with control gene GAPDH.
# Liver tissue homogenates of AIA and MCD animal models were lysed in RIPA buffer (50 mM pH 7.4 Tris, 150 mM NaCl, 1% Triton X-100, 1% sodium deoxycholate, 0.1% SDS, sodium orthovanadate, sodium fluoride and EDTA) containing protease inhibitor cocktails (Roche Life Science, USA). Protein concentration was determined using the BCA protein assay kit (BIO-RAD, USA). Equal amounts of total protein were resolved using SDS-PAGE and transferred onto PVDF membranes (Millipore, Darmstadt, Germany). After incubation in a blocking solution containing with 5% (w/v) skim milk (Nestle Carnation, New Zealand) in TBST buffer (10 mM tris-buffered saline and 0.1% Tween20) for 1 h at room temperature and incubated with primary antibodies overnight at 4° C. The membranes were washed three times with 1×TBST solutions and incubated with the appropriate secondary antibodies at room temperature for 45 min, and subsequently visualized with an enhanced chemiluminescence detection kit (SuperSignal™ West Pico Chemiluminescent Substrate, Thermo Scientific, USA). β-actin was used as the loading control for the experimental data analysis.
# AIA rats [2] = settings: AIA rats; MTX alone; versus vehicle-treated AIA rats
# AIA rats [3] = assay: Radiological and histopathological examination of hind paws / ankle joints of AIA rats; assay type: in vivo, Sprague-Dawley (SD) rats
# Experimental: Disease severity and progression were evaluated by measurements of both hind paw volumes with a plethysmometer chamber (Yiyan technology, Jinan, China) and body weight with a 0.1 g precision balance (Sartorius AG, Göttingen, Germany) every two or three days after arthritis induction. For evaluation the arthritic scoring, the lesions of four paws of each rat (i.e., the arthritic signs) were graded by two separate investigators with a semi-quantitative scale: 0 (normal), 4-8 (mild changes), 8-12 (moderate changes), and 12-16 (severe changes) (van Eden W., et. al., J. E. Coligan, Editor. 2001, John Wiley: New York. p. 1-11). Erythrocyte sedimentation rate (ESR) was determined with ICSH (International Council for Standardization in Hematology) selected method with little modifications at day 42. Briefly, 120 μl of blood sample was taken directly and put into 30 μl of 0.109 mol/L sodium citrate, mixed well, and then transferred into a 1.0 mm×100 mm capillary tube (West China Medical University, ChengDu, China). The tubes were held obliquely at an angle of […] and the erythrocyte sedimentation rate was recorded at 15 min. The cytokines levels including IL-1β, TNF-α, IL-17, IL-33, MMP-9, TIMP-1 and PGE2 in serum were measured using commercially available ELISA kits according to the manufacturers instructions. At the end of the experiments, rat knee images were measured (mean of three readings per knee, Meinaite digital calliper, ShangHai, China) using a IVIS Lumina XRMS Series (PerkinElmer, America) (Esser, R. E., et al., Arthritis Rheum, 1995, 38(1): p. 129-38).
# For histopathological assessment, arthritic paws were collected on day 42 after X-ray check, fixed with 10% phosphate buffered saline (PBS) buffered formalin, and decalcified for 3 days in formic acid. Sections from paraffin-embedded tissue were stained with hematoxylin and eosin (H&E). The obtained plasma was stored in −70° C. for metabolomic studies. The relative organ weight ratios (such as liver index, spleen index, kidney index, lung index) were calculated by dividing the weight of each organ with the body weight.
# AIA rats [4] = assay: Plasma metabolomics by LC-MS/MS in AIA rats; assay type: in vivo, Sprague-Dawley (SD) rats
# Experimental: The plasma sample (200 μL) was thawed on ice for 5 min prior to sample preparation and was mixed with 200 μL of 10 mM N-ethylmaleimide (NEM) in PBS buffer solution and 1000 μL of methanol containing internal standard (I.S.) Phe-d5 in 10 ng/ml. This mixture was incubated at −20° C. for 20 min, and then centrifuged at 12000 rpm for 10 min at 4° C. The supernatant was completely dried under nitrogen flow (Pressure Blowing Concentrator, Tokyo Rikakika, Tokyo, Japan) and reconstituted with distilled water.
# LC-MS/MS analysis was performed on A Waters ACQUITY UPLC coupled with a 4000 Q-TRAP mass spectrometer. Chromatographic separation was carried on a Waters X Bridge™ BEH C18 analytical column (2.5 μm, 3.0×100 mm; Waters, Torrance, Calif.) with a mobile phase composed of 0.1% formic acid water (solvent A) and methanol (solvent B) which was running in a gradient program: 0-3.0 min (0%-1% B); 3.0-10.0 min (1-3% B); 10.0-14.0 min (3-50% B); 14.0-18.0 min (50-95% B); 18.0-22.0 min (95-0% B); followed by a 3-min re-equilibration step. The injection volume was 10 μl at 4° C. and flow rate was 0.6 ml/min. Electrospray (ESI) source were used in both positive and negative ion mode. […]
# The normalized data were exported and further processed by PCA and PLS-DA using a multivariate analysis package SIMCA-P software (Umea, Sweden). Model quality was evaluated based on the relevant values of R^2 and Q^2. […]
# AIA rats [5] = assay: Assessment of liver abnormality and lipid profile in AIA model; assay type: in vivo, Sprague-Dawley (SD) rats
# Experimental: Serum ALT, AST, ALP, GGT and total bilirubin were measured by automatic biochemical analyzer (Toshiba Corporation, Tokyo, Japan). Lipids profile including TG, TC, HDL-C, LDL-C/vLDL-C and free fatty acids were measured in the serum. After animals were sacrificed, tissues of liver were fixed in 10% formalin solution, cleared in xylene, embedded in paraffin blocks from which 5 micron-thick sections were obtained. Sections were stained with H&E dye and examined for pathological changes under light microscope by a pathologist blind to the specimens.
structure (smiles),measurement,setting,value
"CN(Cc1cnc2nc(N)nc(N)c2n1)c1ccc(C(=O)N[C@@H](CCC(=O)O)C(=O)O)cc1 [MTX, methotrexate, reference compound]",expression of aP2 in the liver,[1],reduced
same,"mRNA and/or protein expression of LPL, CYP7A1, and SREBP1 in liver",[1],greatly repressed
same,overexpression of SREBP1,[1],not modulated
same,"increased mRNA levels of hepatic lipogenesis genes (SREBP1, LXR, FXR)",[1]; real-time PCR,attenuated
same,changes of key lipogenic enzyme in both gene and protein levels,[1]; real-time PCR and Western blot,ameliorated changes
same,changes in arthritis score,AIA rats [2],significantly (p<0.001) ameliorated
same,changes in paw volume,AIA rats [2],significantly (p<0.001) ameliorated
same,cartilage and joint destruction of the arthritic joints (radiographs),"AIA rats [3]; MTX, day 42",ameliorated
same,"infiltration of inflammatory cells, synovial hyperplasia","AIA rats [3]; ankle joint sections, H&E",diminished
same,histological grade of representative ankle joint sections,"AIA rats [3]; day 42, H&E, FIG. 2C (MTX; Silybin 200 mg/kg), vehicle-treated AIA grade 2/3",0
same,metabolic network (plasma metabolites),AIA rats [4],effectively repair the metabolic network
same,histopathological assessment of liver tissue,AIA rats [5]; H&E liver sections,congested portal tract and mild fatty changes with lipid drop lets
same,dyslipidemia (serum lipid profile),AIA rats [5]; MTX,successfully improved
same,ALT serum level,"AIA rats [5]; methotrexate alone, 42 days",significant increase
same,GGT serum level,"AIA rats [5]; methotrexate alone, 42 days",significant increase
